Where “and” joins values, the source holds several entries; their conditions need not be identical. Equal entries are not always repeated.
Experiments:
Test in all cases: Caliper, Mobility shift assay off-chip
[1] = target: CAMK2B (human) (UniProt Q13554)
[2] = target: MAPK13 (human) (UniProt O15264)
[3] = target: MST1R (human) (UniProt Q04912)
[4] = target: LYN (human) (UniProt P07948)
[5] = target: CDK5 (human) (UniProt Q00535)
[6] = target: DAPK1 (human) (UniProt P53355)
[7] = target: DDR2 (human) (UniProt Q16832)
[8] = target: PRKX (human) (UniProt P51817)
[9] = target: CDK6 (human) (UniProt Q00534)
CDK6 (human), sequence (Q00534 whole entry, looked up): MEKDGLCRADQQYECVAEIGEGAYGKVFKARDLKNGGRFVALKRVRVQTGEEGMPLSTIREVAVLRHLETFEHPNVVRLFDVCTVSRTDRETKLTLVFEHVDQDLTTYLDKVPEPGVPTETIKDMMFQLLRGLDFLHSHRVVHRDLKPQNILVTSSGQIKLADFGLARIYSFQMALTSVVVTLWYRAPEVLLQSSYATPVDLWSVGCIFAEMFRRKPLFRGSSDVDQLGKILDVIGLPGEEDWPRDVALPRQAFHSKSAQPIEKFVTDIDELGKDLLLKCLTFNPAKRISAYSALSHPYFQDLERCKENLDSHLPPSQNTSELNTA

[10] = target: MAP4K4 (human) (UniProt O95819)
[11] = target: STK10 (human) (UniProt O94804)
[12] = target: PRKD3 (human) (UniProt O94806)
PRKD3 (human), sequence (O94806 whole entry, looked up): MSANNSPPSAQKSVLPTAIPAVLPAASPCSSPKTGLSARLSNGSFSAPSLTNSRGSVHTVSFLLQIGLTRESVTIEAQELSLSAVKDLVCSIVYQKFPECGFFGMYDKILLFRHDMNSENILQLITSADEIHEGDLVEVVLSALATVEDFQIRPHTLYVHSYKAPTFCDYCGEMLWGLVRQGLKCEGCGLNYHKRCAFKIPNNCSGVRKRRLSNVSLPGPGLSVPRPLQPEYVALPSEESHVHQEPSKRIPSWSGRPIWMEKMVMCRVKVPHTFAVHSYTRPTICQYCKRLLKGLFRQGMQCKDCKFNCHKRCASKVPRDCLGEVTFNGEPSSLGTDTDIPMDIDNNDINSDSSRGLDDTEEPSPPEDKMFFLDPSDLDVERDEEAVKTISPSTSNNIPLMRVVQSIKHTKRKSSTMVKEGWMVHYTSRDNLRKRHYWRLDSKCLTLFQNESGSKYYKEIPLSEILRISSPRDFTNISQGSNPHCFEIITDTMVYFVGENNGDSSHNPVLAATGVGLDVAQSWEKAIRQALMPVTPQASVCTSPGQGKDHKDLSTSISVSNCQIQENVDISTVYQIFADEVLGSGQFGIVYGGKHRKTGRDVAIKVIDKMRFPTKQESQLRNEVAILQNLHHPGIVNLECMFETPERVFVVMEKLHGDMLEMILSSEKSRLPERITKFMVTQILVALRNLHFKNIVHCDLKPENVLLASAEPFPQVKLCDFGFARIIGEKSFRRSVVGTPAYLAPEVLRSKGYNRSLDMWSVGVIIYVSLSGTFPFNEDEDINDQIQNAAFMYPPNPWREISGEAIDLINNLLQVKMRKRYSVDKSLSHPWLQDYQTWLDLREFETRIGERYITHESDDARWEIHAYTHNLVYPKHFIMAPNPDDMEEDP

[13] = target: CHEK1 (human) (UniProt O14757)
[14] = target: MAPK10 (human) (UniProt P53779)
[15] = target: PDK2 (human) (UniProt Q15119)
[16] = target: RPS6KA5 KD1 KD2 (human) (UniProt O75582)
[17] = target: PAK7 (human) (UniProt Q9P286)
[18] = target: SIK2 (human) (UniProt Q9H0K1)
[19] = target: PRKCQ (human) (UniProt Q04759)
PRKCQ (human), sequence (Q04759 whole entry, looked up): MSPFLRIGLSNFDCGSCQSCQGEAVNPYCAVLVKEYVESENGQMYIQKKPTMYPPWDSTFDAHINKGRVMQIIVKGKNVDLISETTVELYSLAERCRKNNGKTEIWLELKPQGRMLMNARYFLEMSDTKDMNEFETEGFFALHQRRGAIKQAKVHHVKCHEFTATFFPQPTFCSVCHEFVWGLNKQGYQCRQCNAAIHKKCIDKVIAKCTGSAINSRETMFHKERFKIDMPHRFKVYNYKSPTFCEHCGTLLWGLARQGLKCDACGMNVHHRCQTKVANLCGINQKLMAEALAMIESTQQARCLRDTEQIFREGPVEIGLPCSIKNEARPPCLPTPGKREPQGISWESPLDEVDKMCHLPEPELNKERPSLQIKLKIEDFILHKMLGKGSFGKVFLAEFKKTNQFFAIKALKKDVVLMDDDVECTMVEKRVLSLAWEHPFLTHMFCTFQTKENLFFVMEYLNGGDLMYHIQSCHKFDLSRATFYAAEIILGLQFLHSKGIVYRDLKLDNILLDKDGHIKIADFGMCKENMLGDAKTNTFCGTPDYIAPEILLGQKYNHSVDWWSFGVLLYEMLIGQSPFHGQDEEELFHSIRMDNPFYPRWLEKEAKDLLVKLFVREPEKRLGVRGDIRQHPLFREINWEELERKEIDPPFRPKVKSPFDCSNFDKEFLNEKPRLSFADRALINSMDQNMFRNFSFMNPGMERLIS

[20] = target: MARK3 (human) (UniProt P27448)
MARK3 (human), sequence (P27448 whole entry, looked up): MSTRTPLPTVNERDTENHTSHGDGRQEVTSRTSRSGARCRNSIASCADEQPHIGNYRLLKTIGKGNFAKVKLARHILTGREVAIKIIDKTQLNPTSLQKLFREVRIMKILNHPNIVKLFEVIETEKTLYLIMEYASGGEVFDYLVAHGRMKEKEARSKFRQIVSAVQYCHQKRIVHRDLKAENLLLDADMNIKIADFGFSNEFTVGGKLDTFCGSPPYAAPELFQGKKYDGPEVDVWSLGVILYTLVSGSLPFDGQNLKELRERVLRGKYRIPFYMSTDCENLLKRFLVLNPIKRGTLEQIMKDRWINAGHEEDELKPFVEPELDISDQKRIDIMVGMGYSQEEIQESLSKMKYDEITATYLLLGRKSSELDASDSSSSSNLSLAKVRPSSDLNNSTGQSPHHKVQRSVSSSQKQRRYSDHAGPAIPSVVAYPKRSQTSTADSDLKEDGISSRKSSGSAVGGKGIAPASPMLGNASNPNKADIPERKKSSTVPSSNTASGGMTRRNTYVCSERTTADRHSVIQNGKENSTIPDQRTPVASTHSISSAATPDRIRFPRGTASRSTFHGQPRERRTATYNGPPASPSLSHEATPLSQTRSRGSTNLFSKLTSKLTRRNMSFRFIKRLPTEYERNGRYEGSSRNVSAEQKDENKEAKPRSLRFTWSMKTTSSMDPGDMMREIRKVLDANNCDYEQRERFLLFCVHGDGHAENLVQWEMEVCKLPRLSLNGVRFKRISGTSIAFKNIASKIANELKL

[21] = target: MELK (human) (UniProt Q14680)
MELK (human), sequence (Q14680 whole entry, looked up): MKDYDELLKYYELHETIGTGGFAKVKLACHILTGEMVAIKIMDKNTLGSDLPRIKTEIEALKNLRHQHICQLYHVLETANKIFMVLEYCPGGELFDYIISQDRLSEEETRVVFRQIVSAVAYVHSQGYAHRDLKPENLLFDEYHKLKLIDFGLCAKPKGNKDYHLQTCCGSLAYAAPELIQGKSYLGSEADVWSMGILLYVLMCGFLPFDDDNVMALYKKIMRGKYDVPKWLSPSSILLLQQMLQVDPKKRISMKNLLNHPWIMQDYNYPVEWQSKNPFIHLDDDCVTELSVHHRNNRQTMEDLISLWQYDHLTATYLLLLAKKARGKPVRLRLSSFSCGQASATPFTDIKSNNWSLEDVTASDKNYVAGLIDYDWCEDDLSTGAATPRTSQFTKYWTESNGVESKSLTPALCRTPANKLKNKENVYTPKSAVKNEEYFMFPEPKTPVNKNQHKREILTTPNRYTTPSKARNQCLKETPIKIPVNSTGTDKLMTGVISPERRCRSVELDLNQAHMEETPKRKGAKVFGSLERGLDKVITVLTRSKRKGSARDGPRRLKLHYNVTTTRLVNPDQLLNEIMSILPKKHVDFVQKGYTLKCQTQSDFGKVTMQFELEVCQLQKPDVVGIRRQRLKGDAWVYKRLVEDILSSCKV

[22] = target: PTK2 (human) (UniProt Q05397)
[23] = target: CSNK1A1 (human) (UniProt P48729)
[24] = target: RET (human) (UniProt P07949)
[25] = target: MKNK2 (human) (UniProt Q9HBH9)
[26] = target: BTK (human) (UniProt Q06187)
[27] = target: DYRK1A (human) (UniProt Q13627)
[28] = target: PRKG2 (human) (UniProt Q13237)
[29] = target: PDK4 (human) (UniProt Q16654)
[30] = target: ABL2 (human) (UniProt P42684)
[31] = target: TAOK2 (human) (UniProt Q9UL54)
[32] = target: NEK4 (human) (UniProt P51957)
[33] = target: PHKG2 (human) (UniProt P15735)
[34] = target: ERBB4 (human) (UniProt Q15303)

LYN (human), sequence (P07948 whole entry, looked up): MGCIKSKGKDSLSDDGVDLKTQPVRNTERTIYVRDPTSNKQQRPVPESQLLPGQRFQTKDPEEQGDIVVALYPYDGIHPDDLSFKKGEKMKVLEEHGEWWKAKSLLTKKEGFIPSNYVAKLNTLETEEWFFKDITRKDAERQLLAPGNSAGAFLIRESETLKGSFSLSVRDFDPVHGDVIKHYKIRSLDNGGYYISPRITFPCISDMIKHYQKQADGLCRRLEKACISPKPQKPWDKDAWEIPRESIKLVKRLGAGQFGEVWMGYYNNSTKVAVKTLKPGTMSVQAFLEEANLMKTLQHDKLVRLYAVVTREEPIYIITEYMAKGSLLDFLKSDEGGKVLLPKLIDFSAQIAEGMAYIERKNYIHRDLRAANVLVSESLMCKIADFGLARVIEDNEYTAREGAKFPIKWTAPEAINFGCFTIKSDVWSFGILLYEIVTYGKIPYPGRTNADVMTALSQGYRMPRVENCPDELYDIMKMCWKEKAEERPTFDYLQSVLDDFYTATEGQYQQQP
CAMK2B (human), sequence (Q13554 whole entry, looked up): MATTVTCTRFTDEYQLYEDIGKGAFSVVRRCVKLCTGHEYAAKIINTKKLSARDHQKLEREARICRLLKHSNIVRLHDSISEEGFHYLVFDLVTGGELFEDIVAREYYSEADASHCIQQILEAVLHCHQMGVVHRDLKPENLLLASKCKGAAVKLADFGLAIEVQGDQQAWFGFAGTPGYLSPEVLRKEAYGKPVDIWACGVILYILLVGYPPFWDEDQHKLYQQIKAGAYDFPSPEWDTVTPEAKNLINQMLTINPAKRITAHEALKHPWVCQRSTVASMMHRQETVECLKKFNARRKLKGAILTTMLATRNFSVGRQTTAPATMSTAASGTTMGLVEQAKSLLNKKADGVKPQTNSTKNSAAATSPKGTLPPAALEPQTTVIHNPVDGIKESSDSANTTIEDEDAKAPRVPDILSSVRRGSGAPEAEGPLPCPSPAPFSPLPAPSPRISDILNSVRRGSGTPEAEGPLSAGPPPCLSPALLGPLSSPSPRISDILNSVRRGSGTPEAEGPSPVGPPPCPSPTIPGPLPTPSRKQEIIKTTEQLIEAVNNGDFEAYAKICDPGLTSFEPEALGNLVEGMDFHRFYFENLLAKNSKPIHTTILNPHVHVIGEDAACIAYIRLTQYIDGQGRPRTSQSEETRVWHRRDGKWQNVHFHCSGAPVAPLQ
CDK5 (human), sequence (Q00535 whole entry, looked up): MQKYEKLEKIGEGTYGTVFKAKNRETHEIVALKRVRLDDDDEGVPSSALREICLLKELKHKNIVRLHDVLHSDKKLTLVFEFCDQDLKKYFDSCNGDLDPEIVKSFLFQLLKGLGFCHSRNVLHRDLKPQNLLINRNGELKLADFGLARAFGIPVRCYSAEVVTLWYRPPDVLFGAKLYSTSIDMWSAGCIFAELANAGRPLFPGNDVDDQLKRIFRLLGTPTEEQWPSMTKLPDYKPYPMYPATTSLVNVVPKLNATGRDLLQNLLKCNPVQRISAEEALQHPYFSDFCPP

COc1cc2c(Oc3ccc4[nH]c(C)cc4c3F)ncnc2cc1OCCCN1CCCC1
inhibition ([1]; compound 0.02 µM): -4.3% | inhibition ([1]; compound 0.2 µM): -6% | inhibition ([2]; compound 0.02 µM): -2.9% | inhibition ([2]; compound 0.2 µM): -3.4% | inhibition ([3]; compound 0.02 µM): 4.9% | inhibition ([3]; compound 0.2 µM): 10.8% | inhibition ([4]; compound 0.02 µM): 13.8% and 15.6% | inhibition ([4]; compound 0.2 µM): 53.8% and 53.9% | inhibition ([5]; compound 0.02 µM): 0.8% | inhibition ([5]; compound 0.2 µM): -4.2% | inhibition ([6]; compound 0.02 µM): -5.9% | inhibition ([6]; compound 0.2 µM): 7.4% | inhibition ([7]; compound 0.02 µM): 26.6% | inhibition ([7]; compound 0.2 µM): 82.1% | inhibition ([8]; compound 0.02 µM): 1.7% | inhibition ([8]; compound 0.2 µM): -0.9% | inhibition ([9]; compound 0.02 µM): 11.4% | inhibition ([9]; compound 0.2 µM): 4.1% | inhibition ([10]; compound 0.02 µM): -0.2% | inhibition ([10]; compound 0.2 µM): 15.5% | inhibition ([11]; compound 0.02 µM): 45.1% | inhibition ([11]; compound 0.2 µM): 91.7% | inhibition ([12]; compound 0.02 µM): -1% | inhibition ([12]; compound 0.2 µM): -2.5% | inhibition ([13]; compound 0.02 µM): -6.2% | inhibition ([13]; compound 0.2 µM): -0.1% | inhibition ([14]; compound 0.02 µM): -2.9% | inhibition ([14]; compound 0.2 µM): -6.5% | inhibition ([15]; compound 0.02 µM): -2.7% | inhibition ([15]; compound 0.2 µM): -4.9% | inhibition ([16]; compound 0.02 µM): -4.9% | inhibition ([16]; compound 0.2 µM): -7.3% | inhibition ([17]; compound 0.02 µM): -5.8% | inhibition ([17]; compound 0.2 µM): 7.3% | inhibition ([18]; compound 0.02 µM): 3.7% | inhibition ([18]; compound 0.2 µM): 16.5% | inhibition ([19]; compound 0.02 µM): 8.9% | inhibition ([19]; compound 0.2 µM): 3.7% | inhibition ([20]; compound 0.02 µM): -1.8% | inhibition ([20]; compound 0.2 µM): -3.4% | inhibition ([21]; compound 0.02 µM): 6.6% | inhibition ([21]; compound 0.2 µM): 10% | inhibition ([22]; compound 0.02 µM): -5.3% | inhibition ([22]; compound 0.2 µM): -4.2% | inhibition ([23]; compound 0.02 µM): -5.9% | inhibition ([23]; compound 0.2 µM): -7.9% | inhibition ([24]; compound 0.02 µM): 76.8% | inhibition ([24]; compound 0.2 µM): 98.7% | inhibition ([25]; compound 0.02 µM): -3.7% | inhibition ([25]; compound 0.2 µM): 1.2% | inhibition ([26]; compound 0.02 µM): 3.4% | inhibition ([26]; compound 0.2 µM): 10.1% | inhibition ([27]; compound 0.02 µM): 10% | inhibition ([27]; compound 0.2 µM): -4% | inhibition ([28]; compound 0.02 µM): -2.4% | inhibition ([28]; compound 0.2 µM): -3.4% | inhibition ([29]; compound 0.02 µM): 2.7% | inhibition ([29]; compound 0.2 µM): 1.6% | inhibition ([30]; compound 0.02 µM): 5.6% | inhibition ([30]; compound 0.2 µM): 34.5% | inhibition ([31]; compound 0.02 µM): 3.1% | inhibition ([31]; compound 0.2 µM): 3.3% | inhibition ([32]; compound 0.02 µM): -3.8% | inhibition ([32]; compound 0.2 µM): -3.9% | inhibition ([33]; compound 0.02 µM): -2.9% | inhibition ([33]; compound 0.2 µM): -3.3% | inhibition ([34]; compound 0.02 µM): 17.2% | inhibition ([34]; compound 0.2 µM): 49.8%
